Laboratory results as given in patent US12459931B2, “Benzothiophene derivative regulator, preparation method therefor and use thereof” (Shanghai Hansoh Biomedical Co., Ltd., priority 2019, dated 2025).
pEC50, pIC50: −log10 of the molar value. Like-named read-outs stand apart in the source and are kept apart here.

Experiments:
[1] = molecular target: Human Dopamine D3 Receptor (Homo sapiens (Human), UniProt P35462); assay: Radioligand-receptor binding assay, dopamine D3 receptor ([3H]-methylspiperone); conditions: [3H]-methylspiperone 0.5 nM, human D3 receptor membrane
Human Dopamine D3 Receptor, sequence (P35462 whole entry): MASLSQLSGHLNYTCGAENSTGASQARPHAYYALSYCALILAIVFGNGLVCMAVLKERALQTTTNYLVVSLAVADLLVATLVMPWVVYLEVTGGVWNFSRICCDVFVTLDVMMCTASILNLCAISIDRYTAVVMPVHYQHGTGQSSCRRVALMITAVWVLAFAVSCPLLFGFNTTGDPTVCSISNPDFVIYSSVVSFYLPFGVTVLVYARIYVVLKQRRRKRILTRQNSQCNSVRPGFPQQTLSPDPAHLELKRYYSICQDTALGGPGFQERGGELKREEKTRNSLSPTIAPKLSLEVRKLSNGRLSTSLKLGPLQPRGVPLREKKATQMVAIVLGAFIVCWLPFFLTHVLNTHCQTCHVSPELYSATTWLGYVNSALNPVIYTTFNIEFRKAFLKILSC
Method: Determination of the Binding Ability of the Compounds of the Present Invention to Dopamine D3 Receptor
The objective of this test example is to determine the affinity of the compounds for dopamine D3 receptor.
Assay buffer: 50 mM Tris-HCl pH 7.4, 10 mM MgCl2; wash solution: 50 mM Tris-HCl pH 7.4, stored at 4° C.; 0.5% PEI solution: 0.5 g PEI dissolve in 100 mL ddH2O, 4° C. storage of spare.
(§1) 5 μL of the test compounds (0.005 nM to 100 nM, 10 concentrations in total) and 100 μL of buffer were added to a 96-well assay plate. 1 μL of cell membrane and 300 μL of buffer were added to each well, and the plate was shaken at 600 rpm for 5 min. A mixed solution of 100 μL of buffer and [^3H]-methylspiperone (the final concentration was 0.5 nM) was added to each well. The plate was shaken at 600 rpm for 5 min, and incubated at 27° C. for 30 min. The […]-96 GF/B filter plate pre-incubated with 0.5% PEI for 1 h was washed twice with the buffer (1 mL/well). The cell membrane suspension was added to the […]-96 GF/B filter plate, washed 4 times, and incubated at 55° C. for 10 min. 40 μL of ULTIMA GOLD was added to each well, and liquid scintillation counting was carried out.
(§2) The CPM (Counts per minute) values were determined by TopCount. […] The 10 concentrations of the compound were from 100 nM to 0.005 nM after 3-fold dilution of the reaction system. The percent inhibition rate and ten-point concentration data were fitted to the parametric nonlinear logistic equation by using GraphPad prism to calculate the IC50 values of the compound.

5-HT2A receptor [2] = molecular target: T1, 5-HT2A receptor (Homo sapiens (Human), UniProt P28223); assay: Radioligand-receptor binding assay, 5-HT2A receptor ([3H]-Ketanserin); conditions: [3H]-Ketanserin 2 nM, human 5-HT2A receptor membrane; read-out: 5HT-2A binding activity IC50
T1 sequence (P28223 whole entry): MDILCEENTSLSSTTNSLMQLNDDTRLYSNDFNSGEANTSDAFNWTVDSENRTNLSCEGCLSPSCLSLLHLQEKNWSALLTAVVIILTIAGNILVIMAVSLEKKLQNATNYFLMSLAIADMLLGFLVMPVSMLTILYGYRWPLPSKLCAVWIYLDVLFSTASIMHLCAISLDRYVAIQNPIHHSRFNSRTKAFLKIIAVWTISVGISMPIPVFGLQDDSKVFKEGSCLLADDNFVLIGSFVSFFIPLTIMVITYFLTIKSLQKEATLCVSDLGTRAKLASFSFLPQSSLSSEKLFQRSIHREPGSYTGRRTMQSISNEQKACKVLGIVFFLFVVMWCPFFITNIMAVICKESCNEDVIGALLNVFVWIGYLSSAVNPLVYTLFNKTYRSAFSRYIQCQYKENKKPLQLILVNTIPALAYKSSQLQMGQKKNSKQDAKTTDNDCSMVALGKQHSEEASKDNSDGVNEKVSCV
Method: Determination of the Binding Ability of the Compounds of the Present Invention to 5-HT2A Receptor
The objective of this test example is to determine the affinity of the compounds for 5-HT2A receptor.
Assay buffer: 50 mM Tris-HCl pH 7.4, 4 mM CaCl2); wash solution: 50 mM Tris-HCl pH 7.4, stored at 4° C.; 0.5% PEI solution: 0.5 g PEI dissolve in 100 mL ddH2O, 4° C. storage of spare.
as §1, with “plate. 1.5” for “plate. 1”, “300 L” for “300 μL”, “each well. The” for “each well, and the”, “and [^3H]-Ketanserin” for “and [^3H]-methylspiperone”, “was 2” for “was 0.5”
as §2

5-HT2A receptor [3] = molecular target: T1, 5-HT2A receptor; assay: Effect on calcium ion mobility in cells stably expressing 5-HT2A receptors (Flp-In-CHO-5HT2A, FLIPR); assay type: cell-based; conditions: Flp-In-CHO-5HT2A cells, 5HT as agonist
Method: To determine the inhibitory effect of the compounds on 5-HT2A receptor.
Probenecid and BSA were added fresh on the day of the experiment.
The calcium signal values were determined by FLIPR. […] The percent inhibition rate and ten-point concentration data were fitted to the parametric nonlinear logistic equation by using GraphPad prism to calculate the IC50 values of the compound.

[4] = Pharmacokinetic assay in Balb/c mice (plasma and brain tissue); assay type: in vivo; conditions: p.o. 5 mg/kg; for AUC(0-t) / AUC(0-inf) / Cmax / MRT / half-life: male, Balb/c, mouse, po; for AUC(0-t): read-out: Area under curve AUC0-t; for AUC(0-inf): read-out: Area under curve AUC0-∞; for Cmax: read-out: Plasma concentration Cmax; for MRT: read-out: Average residence time MRT; for half-life: read-out: Half life t1/2 (converted)
Method: III. Pharmacokinetic Assay in Balb/c Mice
Balb/c mice were used as test animals. The pharmacokinetic behavior of the compounds of Examples of the present invention was studied in mouse body (plasma and brain tissue) by orally administration at a dose of 5 mg/kg.
Male Balb/c mice (12 mice per group), purchased from Shanghai Jiesijie Laboratory Animal Co., LTD, with Certificate No.: SCXK (Shanghai) 2013-0006 N0.311620400001794. • 2.3 Formulation of the preparation: […]
The test compound was dissolved in 0.5% CMC-Na (1% Tween80) by sonication to formulate a clear solution or homogeneous suspension. • 2.4 Administration:
After an overnight fast, male Balb/c mice (12 mice per group) were administered p.o. with the test compound at a dose of 5 mg/kg and a volume of 10 mL/kg. • 2.5 Sample collection:
0.2 mL of blood was taken from the heart of the mouse before administration and at 1, 2, 4, 8 and 24 hours after administration, and the mice were sacrificed with CO2. The samples were stored in EDTA-K2 tubes, and centrifuged for 6 minutes at 4° C., 6000 rpm to separate the plasma. The plasma samples were stored at −80° C. Whole brain tissue was taken out, weighed, placed in a 2 mL centrifuge tube, and stored at −80° C. • 2.6 Sample process:
1) 160 μL of acetonitrile was added to 40 μL of the plasma sample for precipitation, and then the mixture was centrifuged at 3500×g for 5 to 20 minutes.
2) 90 μL of acetonitrile containing internal standard (100 ng/mL) was added to 30 μL of the plasma and brain homogenate sample for precipitation, and then the mixture was centrifuged at 13000 rpm for 8 minutes.
3) 70 μL of water was added to 70 μL of the treated supernatant and mixed by vortex for 10 minutes. 20 μL of the solution was taken to analyze the concentration of the test compound by LC/MS/MS. LC/MS/MS analytical instrument: AB Sciex API 4000 Qtrap. • 2.7 Liquid chromatography analysis: • Liquid chromatography condition: Shimadzu LC-20AD pump • Chromatographic column: Agilent ZORBAX XDB-C18 (50×2.1 mm, 3.5 μm); Mobile phase: Eluent A was 0.1% formic acid in water, and Eluent B was acetonitrile • Flow rate: 0.4 mL/min • Elution time: 0-4.0 minutes the eluent is as follows:
The main parameters of pharmacokinetics were calculated by WinNonlin 6.1.

D3 receptor = D3 receptor (Homo sapiens (Human), UniProt P35462); assay: Effect on cAMP content in cells stably expressing D3 receptors (CHO-D3); assay type: cell-based; conditions: forskolin stimulated, activation
D3 receptor, sequence (P35462 whole entry): as the sequence (P35462 whole entry) above
Method: To determine the activation effect of the compounds on D3 receptor.
3. The experimental buffer (1*HBSS, 0.1% BSA, 20 mM HEPES and 500 μM IBMX) was prepared. The compound was diluted with the buffer. 2.5 μL of the compound solution was added to each well, and the plate was incubated at 37° C. for 10 minutes. The forskolin was diluted to 8 μM (8*) with the experimental buffer. […] The reaction plate was centrifuged at 200 g for 30 s at room temperature, and left to stand at 25° C. for 1 h. Data was collected using Envision.

Row | Structure (SMILES) | pIC50 [1] | pIC50 (5-HT2A receptor [2]) | pIC50 (5-HT2A receptor [3]) | Peak time tmax ([4]; Brain) | Peak time tmax ([4]; Plasma) | AUC(0-t) ([4]; Brain) | AUC(0-inf) ([4]; Brain) | Cmax ([4]; Brain) | AUC(0-t) ([4]; Plasma) | AUC(0-inf) ([4]; Plasma) | MRT ([4]; Plasma) | half-life ([4]; Plasma) | Cmax ([4]; Plasma) | pEC50 (D3 receptor)
1 | O=C(N[C@H]1CC[C@](F)(CCN2CCN(c3cccc4sccc34)CC2)CC1)c1ccco1 [Example 40, N-(Cis-4-(2-(4-(benzo[b]thiophen-4-yl)piperazin-1-yl)ethyl)-4-fluorocyclohexyl)furan-2-carboxamide] | 9.08 | 9.37 | 8.50 | 1 h | 6 h | 4590 ng·h/mL | 4960 ng·h/mL | 328 ng/mL | 3070 ng·h/mL | 3390 ng·h/mL | 9.21 h | 7.3 h | 192 ng/mL | –
2 | O=C(N[C@H]1CC[C@H](CCN2CCN(c3cccc4sccc34)CC2)CC1)c1ncco1 [Example 43, N-(Trans-4-(2-(4-(benzo[b]thiophen-4-yl)piperazin-1-yl)ethyl)cyclohexyl)oxazole-2-carboxamide] | 9.37 | 9.43 | – | 1 h | 1 h | 14100 ng·h/mL | 16500 ng·h/mL | 1390 ng/mL | 4140 ng·h/mL | 4860 ng·h/mL | 11.8 h | 8.9 h | 403 ng/mL | 10.00
